# Assay results reported in ChEMBL document CHEMBL1201862, “PubChem BioAssay data set” (2004).
# Calls of active or inactive are those of the source.
# Legend:
# Protein Wnt-3a = Protein Wnt-3a (Mus musculus, UniProt P27467); test: Wnt3a-driven reporter signaling inhibition, dose response, selectivity assay for Gli-SUFU antagonist project, Wnt-LIGHT cells, luminescence (AID 651570); assay type: functional; conditions: read-out: IC50_Mean;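 note: Wnt-LIGHT reporter cells stimulated with conditioned medium from Wnt3a-producing cells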
# [1] = target: COUP transcription factor 2 (Homo sapiens, UniProt P24468); test: Luminescence-based cell-based high throughput dose response assay to identify inhibitors of COUP-TFII (NR2F2).; assay type: functional;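 note: HEK293 cells transiently cotransfected with COUP-TFII expression vector and reporter; luciferase reporter luminescence driven by COUP-TFII from the pX2-168 reporter plasmid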
# [2] = target: T1, Short transient receptor potential channel 4 (Mus musculus, UniProt Q9QUQ5); test: mouse TRPC4 channel activators, dose response, cell-based, HEK293 TRPC4/mu-opioid, Fluo-4 calcium (AID 434937); assay type: functional
# T1 sequence (Q9QUQ5 whole entry): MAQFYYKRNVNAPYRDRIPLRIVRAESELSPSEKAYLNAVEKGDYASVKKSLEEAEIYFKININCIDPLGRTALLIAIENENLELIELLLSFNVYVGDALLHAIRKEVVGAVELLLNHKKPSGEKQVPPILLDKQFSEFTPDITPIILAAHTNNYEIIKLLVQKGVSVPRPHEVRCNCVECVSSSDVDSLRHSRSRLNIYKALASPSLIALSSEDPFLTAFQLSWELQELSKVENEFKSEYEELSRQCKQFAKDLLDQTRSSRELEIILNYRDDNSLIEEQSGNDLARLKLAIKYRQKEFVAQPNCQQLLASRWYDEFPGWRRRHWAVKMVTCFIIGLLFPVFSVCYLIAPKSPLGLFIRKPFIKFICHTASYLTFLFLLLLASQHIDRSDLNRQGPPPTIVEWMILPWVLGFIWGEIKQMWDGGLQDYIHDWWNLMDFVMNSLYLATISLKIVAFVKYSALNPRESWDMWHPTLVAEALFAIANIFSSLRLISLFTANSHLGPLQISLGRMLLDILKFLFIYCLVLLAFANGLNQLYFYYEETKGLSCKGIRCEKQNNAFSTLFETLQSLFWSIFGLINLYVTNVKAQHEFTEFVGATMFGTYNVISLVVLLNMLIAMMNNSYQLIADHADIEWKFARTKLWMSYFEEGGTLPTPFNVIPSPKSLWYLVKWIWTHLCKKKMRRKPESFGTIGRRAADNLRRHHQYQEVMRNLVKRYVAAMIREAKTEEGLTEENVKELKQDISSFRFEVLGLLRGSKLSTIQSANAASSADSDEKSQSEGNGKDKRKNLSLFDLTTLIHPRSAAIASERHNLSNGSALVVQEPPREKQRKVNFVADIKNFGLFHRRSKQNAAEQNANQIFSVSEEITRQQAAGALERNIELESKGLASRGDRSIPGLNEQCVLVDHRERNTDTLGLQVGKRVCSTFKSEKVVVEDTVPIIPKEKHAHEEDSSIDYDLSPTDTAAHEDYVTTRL
# [3] = human group III sPLA2 inhibitors, dose response, biochemical, QFRET, IC50 (AID 743457);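 note: green fluorescence rise as the enzyme cleaves BODIPY PC-A2 in liposomes; potency for inhibition of the enzyme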
# [4] = Luminescence Cell-Based Dose Response HTS to Identify Activators of Luciferase Translation or Activity in H4 […] Cells. [Related pubchem assays: 1829 (Project Summary), 1814 (Primary HTS)]; assay type: functional
# [5] = target: FAD-linked sulfhydryl oxidase ALR (Homo sapiens, UniProt P55789); test: inhibitors of human ALR sulfhydryl oxidase, dose response, biochemical, H2O2 detection, luminescence, cherry-pick (AID 493248)
# [6] = Luminescence Cell-Based Dose Confirmation to Identify Activators of 5'UTR Stem-Loop Driven Alpha-Synuclein mRNA Translation in H4 Neuroglioblastoma Cells. [Related pubchem assays: 1829 (Project Summary), 1814 (Primary HTS)]; assay type: functional
# H4 = test: Luminescence Cell-Based Dose Response HTS to Identify Activators of 5'UTR Stem-Loop Driven Prion Protein mRNA Translation in H4 Neuroglioblastoma Cells. [Related pubchem assays: 1829 (Project Summary), 1814 (Primary HTS)]; assay type: functional; conditions: Homo sapiens
# [7] = target: T2, Oxysterols receptor LXR-beta (Homo sapiens, UniProt P55055); assay type: functional, cell-based;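 note: agonist activity at LXR measured by a cell-based luminescence readout across a dose range, run as a counterscreen for daf-12 agonists; HEK293 cells with Gal4-LXR fusion and GAL4-driven luciferase reporter; potency for activation of Gal4-LXR reporter so compounds are agonists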
# T2 sequence (P55055 whole entry): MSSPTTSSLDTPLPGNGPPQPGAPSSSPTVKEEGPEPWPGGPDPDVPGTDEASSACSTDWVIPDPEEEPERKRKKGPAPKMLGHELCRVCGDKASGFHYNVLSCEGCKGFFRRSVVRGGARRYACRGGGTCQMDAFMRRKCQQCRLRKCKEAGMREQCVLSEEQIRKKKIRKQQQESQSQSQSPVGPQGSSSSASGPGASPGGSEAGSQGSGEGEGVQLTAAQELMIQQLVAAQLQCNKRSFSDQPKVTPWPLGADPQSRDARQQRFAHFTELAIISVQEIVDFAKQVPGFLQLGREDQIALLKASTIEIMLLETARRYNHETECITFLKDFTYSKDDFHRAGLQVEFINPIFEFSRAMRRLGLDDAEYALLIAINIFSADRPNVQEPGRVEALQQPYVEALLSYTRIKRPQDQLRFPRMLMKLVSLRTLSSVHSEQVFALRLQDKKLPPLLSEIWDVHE
# [8] = Luminescence Cell-Based Dose Response to Identify Activators of Luciferase Translation or Activity in H4-C Neuroglioblastoma Cells. [Related pubchem assays: 1829 (Project Summary), 1814 (Primary HTS)]; assay type: functional
# [9] = Luminescence Cell-Based Dose Response to Identify Activators of 5'UTR Stem-Loop Driven Prion Protein mRNA Translation in H4-C Neuroglioblastoma Cells. [Related pubchem assays: 1829 (Project Summary), 1814 (Primary HTS)]; assay type: functional
# [10] = target: Disintegrin and metalloproteinase domain-containing protein 17 (Homo sapiens, UniProt P78536); test: ADAM17 protease inhibitors, dose response, counter-screen for ADAM10 exosite inhibitor project, biochemical, quenched FRET substrate (AID 743253)
# [11] = test system: Streptococcus sp. 'group A'; test: growth inhibition of control SK(-) GAS strain, dose response, counter-screen for streptokinase expression inhibitor project, luminescence, kanamycin, BacTiterGlo, confirmation (AID 1900); assay type: functional, organism-based
# Estrogen receptor beta = Estrogen receptor beta (Homo sapiens, UniProt Q92731);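 note: recombinant ER-beta bound to coactivator SRC1 peptide in presence of estradiol agonist; inhibitors block coactivator peptide binding and lower the FRET signal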
# [12] = NIH-3T3 fibroblast cytotoxicity, dose response, cytotoxicity control, cell-based, fluorescence, Alamar Blue, secondary assay (AID 2327); assay type: functional;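 note: NIH-3T3 mouse fibroblasts cultured with fluconazole at 8 µg/mL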
# [13] = ADAM10 inhibitors, peptide cleavage, dose response, biochemical, QFRET (AID 743254);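 note: ADAM10 enzyme with the DM2 quenched FRET peptide as substrate; EDANS fluorescence gain as the protease cuts the substrate; inhibitor potency against ADAM10 proteolytic activity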
# Streptococcus = test: Group A Streptococcus viability loss, dose response, counter-screen for streptokinase expression inhibitor project, luminescence, BacTiterGlo (AID 1915); assay type: functional, organism-based;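 note: potency for reduction of bacterial viability or growth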
# [14] = C. albicans growth with fluconazole, confirmation, fluorescence, retest (AID 2467); assay type: functional, cell-based
# Kallikrein-7 = Kallikrein-7 (Homo sapiens, UniProt P49862); test: Fluorescence Intensity-based biochemical primary high throughput dose response assay to identify activators of kallikrein-7 (K7) zymogen.
# [15] = target: Potassium channel subfamily K member 9 (Homo sapiens, UniProt Q9NPC2); test: TASK3 (KCNK9) channel inhibitors, thallium flux, SAR follow-up, selectivity assay for TASK1 inhibitor project, cell-based, FluxOR thallium flux, concentration-response (AID 652211); assay type: functional;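 note: potency is for inhibitors of the channel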
# [16] = target: Potassium channel subfamily K member 3 (Homo sapiens, UniProt O14649); test: TASK1 (KCNK3) potassium channel inhibitors, SAR follow-up, CHO cells, FluxOR thallium flux (AID 652212); assay type: functional
# [17] = target: Voltage-gated inwardly rectifying potassium channel KCNH2 (Homo sapiens, UniProt Q12809); test: hERG channel inhibition in selectivity testing, SAR follow-up, selectivity assay for TASK1 inhibitor project, FluxOR thallium flux, concentration-response, CHO cells (AID 652194); assay type: functional, cell-based
# HEK293 = test: HEK293T cell cytotoxicity, dose response, cytotoxicity control, ATP luminescence, cherry-pick samples (AID 687005); assay type: functional, cell-based; conditions: Homo sapiens;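 note: cells exposed to compound for 48 hours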
# HeLa = test: HeLa cell cytotoxicity, dose response, cytotoxicity control, ATP luminescence, cherry-pick samples (AID 687004); assay type: functional, cell-based; conditions: Homo sapiens
# [18] = HEK293 Cytotoxicity Assay Measured in Cell-Based System Using Plate Reader - 7071-01_Inhibitor_Dose_CherryPick_Activity_Set2.; assay type: functional
# Cryptococcus neoformans = test: PubChem AID 686997; assay type: functional, organism-based
# [19] = target: T3, High affinity choline transporter 1 (Homo sapiens, UniProt Q9GZV3); test: CHT choline uptake inhibitors, dose response, cell-based, HEK-293 hCHT, [3H]-choline uptake (AID 652177); assay type: functional
# T3 sequence (Q9GZV3 whole entry): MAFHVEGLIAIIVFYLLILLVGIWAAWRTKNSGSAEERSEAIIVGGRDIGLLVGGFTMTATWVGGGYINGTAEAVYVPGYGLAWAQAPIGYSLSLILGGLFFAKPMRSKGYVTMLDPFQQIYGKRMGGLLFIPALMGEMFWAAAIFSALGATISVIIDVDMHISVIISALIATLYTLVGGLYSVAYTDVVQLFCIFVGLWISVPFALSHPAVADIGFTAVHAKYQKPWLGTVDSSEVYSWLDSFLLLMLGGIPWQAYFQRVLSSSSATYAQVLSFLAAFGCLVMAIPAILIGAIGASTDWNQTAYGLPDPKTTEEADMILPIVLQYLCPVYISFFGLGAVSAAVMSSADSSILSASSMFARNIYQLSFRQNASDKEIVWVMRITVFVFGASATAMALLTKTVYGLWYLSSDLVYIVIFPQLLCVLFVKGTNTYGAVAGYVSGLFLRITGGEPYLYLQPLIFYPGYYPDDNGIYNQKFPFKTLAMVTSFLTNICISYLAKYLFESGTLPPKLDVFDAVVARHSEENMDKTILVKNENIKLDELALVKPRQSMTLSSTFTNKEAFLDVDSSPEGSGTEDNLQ
# [20] = cytotoxicity in HEK293 cells, dose response, cytotoxicity control, cell-based, cherry-picked samples (AID 1053185); assay type: functional
# [21] = cytotoxicity in HepG2 cells, dose response, cytotoxicity control, cell-based, cherry-picked samples (AID 1053183); assay type: functional
# [22] = cytotoxicity in A549 cells, dose response, cytotoxicity control, cell-based, cherry-picked samples (AID 1053184); assay type: functional
# [23] = HeLa cell cytotoxicity, dose response, cytotoxicity control, 24 h, plate reader, dry powder (AID 686928); assay type: functional, cell-based
# [24] = target: Protein disulfide-isomerase (Homo sapiens, UniProt P07237); test: PDI inhibitors, insulin turbidity readout, confirmation, biochemical, dry powder samples, set 2 (AID 652146)
# [25] = HEK293 cell cytotoxicity, dose response, cytotoxicity control, HEK293T, ATP luminescence, dry powder (AID 652119); assay type: functional, cell-based
# [26] = A Cell-Based Confirmatory Screen for Compounds that Inhibit VEEV, TC-83 (8).; assay type: functional
# [27] = Late stage assay provider results from the probe development effort to identify inhibitors of the Plasmodium falciparum M18 Aspartyl Aminopeptidase (M18AAP): radiolabel-based cell-based dose response assay to identify compounds that inhibit P. falciparum growth in RBCs, Set 2..; assay type: functional
# Sequence of FAD-linked sulfhydryl oxidase ALR (P55789 whole entry): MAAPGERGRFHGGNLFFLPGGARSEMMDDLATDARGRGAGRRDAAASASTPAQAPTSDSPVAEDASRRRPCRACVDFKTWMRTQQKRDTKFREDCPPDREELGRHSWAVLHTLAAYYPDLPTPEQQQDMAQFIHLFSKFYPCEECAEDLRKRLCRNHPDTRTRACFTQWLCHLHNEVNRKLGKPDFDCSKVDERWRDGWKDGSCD
# Sequence of Disintegrin and metalloproteinase domain-containing protein 17 (P78536 whole entry, the tested form may be a part): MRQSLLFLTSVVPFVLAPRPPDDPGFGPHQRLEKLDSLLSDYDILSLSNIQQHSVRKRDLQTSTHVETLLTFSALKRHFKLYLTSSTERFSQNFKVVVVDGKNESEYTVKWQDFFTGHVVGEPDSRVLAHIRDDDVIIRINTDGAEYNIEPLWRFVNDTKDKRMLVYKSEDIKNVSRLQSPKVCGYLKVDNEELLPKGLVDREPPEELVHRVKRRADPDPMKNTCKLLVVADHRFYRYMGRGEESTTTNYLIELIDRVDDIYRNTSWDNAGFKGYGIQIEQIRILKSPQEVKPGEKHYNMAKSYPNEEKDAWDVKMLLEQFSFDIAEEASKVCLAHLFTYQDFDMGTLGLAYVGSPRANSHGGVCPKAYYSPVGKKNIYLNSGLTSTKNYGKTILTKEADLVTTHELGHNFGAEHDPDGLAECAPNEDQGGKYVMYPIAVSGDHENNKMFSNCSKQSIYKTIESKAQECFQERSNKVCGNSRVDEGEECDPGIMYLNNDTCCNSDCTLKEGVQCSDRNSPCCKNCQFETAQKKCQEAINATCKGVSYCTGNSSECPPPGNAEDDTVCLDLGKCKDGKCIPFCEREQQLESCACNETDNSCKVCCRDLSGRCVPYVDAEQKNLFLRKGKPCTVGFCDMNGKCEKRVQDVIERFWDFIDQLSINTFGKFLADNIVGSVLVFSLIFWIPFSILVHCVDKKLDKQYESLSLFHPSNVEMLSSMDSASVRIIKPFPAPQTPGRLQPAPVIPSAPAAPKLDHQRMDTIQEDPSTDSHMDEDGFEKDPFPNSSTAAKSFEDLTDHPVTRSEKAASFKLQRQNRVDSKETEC
# Sequence of Protein Wnt-3a (P27467 whole entry): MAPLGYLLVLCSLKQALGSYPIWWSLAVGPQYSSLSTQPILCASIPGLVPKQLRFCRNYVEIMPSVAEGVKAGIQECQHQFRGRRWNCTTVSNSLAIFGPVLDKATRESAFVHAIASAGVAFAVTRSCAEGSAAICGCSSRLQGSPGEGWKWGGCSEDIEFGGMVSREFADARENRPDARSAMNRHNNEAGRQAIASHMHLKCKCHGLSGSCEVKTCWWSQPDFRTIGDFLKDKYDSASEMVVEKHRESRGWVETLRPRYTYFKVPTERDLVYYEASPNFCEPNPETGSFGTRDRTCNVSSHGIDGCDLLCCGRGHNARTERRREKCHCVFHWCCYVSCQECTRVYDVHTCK
# Sequence of COUP transcription factor 2 (P24468 whole entry): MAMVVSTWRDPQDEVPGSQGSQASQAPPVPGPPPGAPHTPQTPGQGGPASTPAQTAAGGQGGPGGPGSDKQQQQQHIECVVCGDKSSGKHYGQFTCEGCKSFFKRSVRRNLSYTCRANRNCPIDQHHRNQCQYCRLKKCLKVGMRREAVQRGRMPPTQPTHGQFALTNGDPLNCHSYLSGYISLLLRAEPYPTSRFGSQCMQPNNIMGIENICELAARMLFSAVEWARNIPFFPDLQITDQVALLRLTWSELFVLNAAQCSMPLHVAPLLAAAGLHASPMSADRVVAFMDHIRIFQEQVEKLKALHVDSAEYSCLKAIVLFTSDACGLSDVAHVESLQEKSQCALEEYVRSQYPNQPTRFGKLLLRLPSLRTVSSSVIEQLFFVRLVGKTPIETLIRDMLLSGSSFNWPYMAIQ
# Sequence of Protein disulfide-isomerase (P07237 whole entry): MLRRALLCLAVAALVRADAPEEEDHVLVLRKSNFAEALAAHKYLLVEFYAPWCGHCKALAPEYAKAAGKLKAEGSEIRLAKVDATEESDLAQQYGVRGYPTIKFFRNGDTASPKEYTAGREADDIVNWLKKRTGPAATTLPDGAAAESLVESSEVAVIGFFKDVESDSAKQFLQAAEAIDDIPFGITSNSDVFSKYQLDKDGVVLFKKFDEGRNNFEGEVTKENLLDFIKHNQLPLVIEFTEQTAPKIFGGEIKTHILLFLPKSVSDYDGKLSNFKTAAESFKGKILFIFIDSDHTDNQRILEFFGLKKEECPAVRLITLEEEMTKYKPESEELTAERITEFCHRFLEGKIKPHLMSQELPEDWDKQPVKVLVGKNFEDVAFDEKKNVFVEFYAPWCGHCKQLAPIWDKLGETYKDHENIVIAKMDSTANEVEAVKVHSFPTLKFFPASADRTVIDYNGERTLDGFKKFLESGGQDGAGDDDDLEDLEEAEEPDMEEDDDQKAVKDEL
# Sequence of Potassium channel subfamily K member 3 (O14649 whole entry): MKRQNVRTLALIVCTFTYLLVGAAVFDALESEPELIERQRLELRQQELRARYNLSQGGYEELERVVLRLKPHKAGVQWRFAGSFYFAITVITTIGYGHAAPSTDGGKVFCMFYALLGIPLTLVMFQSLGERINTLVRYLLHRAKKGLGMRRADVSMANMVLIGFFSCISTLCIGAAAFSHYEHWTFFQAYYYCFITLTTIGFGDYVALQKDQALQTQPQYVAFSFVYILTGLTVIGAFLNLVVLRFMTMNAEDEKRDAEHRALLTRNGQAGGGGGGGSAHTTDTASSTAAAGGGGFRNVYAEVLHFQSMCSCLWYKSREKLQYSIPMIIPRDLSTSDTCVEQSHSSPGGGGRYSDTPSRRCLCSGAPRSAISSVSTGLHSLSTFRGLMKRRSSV
# Sequence of Voltage-gated inwardly rectifying potassium channel KCNH2 (Q12809 whole entry): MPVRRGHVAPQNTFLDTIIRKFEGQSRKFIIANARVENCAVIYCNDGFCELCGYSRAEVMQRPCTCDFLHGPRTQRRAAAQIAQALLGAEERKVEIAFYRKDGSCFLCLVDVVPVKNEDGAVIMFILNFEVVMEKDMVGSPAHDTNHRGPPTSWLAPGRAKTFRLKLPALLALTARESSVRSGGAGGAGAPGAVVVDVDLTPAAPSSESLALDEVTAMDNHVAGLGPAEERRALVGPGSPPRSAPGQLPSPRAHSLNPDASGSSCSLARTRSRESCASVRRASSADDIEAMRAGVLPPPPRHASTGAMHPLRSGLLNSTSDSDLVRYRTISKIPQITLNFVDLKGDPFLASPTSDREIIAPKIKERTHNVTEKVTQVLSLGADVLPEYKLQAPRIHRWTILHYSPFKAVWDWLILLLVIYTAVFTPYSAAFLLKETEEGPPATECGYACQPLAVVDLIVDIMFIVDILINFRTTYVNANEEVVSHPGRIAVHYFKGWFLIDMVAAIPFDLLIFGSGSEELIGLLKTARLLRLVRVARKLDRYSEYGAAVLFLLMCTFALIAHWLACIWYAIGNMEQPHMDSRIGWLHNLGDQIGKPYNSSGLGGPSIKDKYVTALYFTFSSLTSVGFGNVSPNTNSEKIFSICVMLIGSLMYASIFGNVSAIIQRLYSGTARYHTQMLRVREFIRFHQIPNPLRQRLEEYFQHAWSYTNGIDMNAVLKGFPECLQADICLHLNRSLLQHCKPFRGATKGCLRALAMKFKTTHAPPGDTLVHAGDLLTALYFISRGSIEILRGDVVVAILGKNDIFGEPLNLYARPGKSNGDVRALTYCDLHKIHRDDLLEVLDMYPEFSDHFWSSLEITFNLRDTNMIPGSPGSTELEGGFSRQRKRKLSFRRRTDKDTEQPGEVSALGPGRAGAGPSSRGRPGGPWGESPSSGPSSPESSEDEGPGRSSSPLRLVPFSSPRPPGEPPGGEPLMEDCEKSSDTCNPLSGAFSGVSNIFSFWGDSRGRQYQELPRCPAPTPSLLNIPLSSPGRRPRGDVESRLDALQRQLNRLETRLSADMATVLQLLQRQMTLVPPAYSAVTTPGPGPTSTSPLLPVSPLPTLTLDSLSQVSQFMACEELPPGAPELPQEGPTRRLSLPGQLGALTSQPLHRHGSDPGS
# Sequence of Kallikrein-7 (P49862 whole entry): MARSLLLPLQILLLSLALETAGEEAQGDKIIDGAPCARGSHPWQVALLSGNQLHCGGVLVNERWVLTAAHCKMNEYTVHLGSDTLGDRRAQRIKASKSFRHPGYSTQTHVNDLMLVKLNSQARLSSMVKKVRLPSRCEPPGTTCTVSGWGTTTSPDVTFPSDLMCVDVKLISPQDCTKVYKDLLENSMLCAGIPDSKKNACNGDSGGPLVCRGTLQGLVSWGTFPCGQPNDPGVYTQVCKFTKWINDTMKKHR
# Sequence of Estrogen receptor beta (Q92731 whole entry): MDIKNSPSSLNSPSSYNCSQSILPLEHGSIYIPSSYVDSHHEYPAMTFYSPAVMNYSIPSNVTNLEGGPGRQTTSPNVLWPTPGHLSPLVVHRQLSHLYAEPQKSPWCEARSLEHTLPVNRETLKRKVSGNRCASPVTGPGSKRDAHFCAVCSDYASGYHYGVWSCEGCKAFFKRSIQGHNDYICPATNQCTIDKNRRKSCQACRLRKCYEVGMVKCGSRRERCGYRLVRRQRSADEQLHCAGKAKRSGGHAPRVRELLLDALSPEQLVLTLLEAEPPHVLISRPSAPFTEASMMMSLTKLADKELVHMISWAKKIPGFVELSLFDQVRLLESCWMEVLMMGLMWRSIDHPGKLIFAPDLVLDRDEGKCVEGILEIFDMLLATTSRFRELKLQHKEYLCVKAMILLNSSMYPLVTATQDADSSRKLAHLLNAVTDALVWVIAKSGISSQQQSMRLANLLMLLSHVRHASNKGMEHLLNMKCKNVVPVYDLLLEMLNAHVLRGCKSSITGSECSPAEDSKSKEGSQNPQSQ
structure (smiles),measurement,setting,value
CCC(C)NC(=O)CCC(=O)OC1O[C@H]2OC3(C)CC[C@H]4[C@H](C)CCC(C1C)C24OO3 (some centres not stated),IC50,Protein Wnt-3a,0.238 µM (active)
same,IC50,[1],468 µM (inactive)
COc1ccc(C2C3=C(CC(C)(C)CC3=O)N(C)C3=C2C(=O)CC(C)(C)C3)cc1,AC50,cells,2.07 µM (active)
Cc1ccc(C(=O)NC(=S)NNC(=O)c2ccccc2)cc1,EC50,[2],1.33 µM (active)
same,IC50,[3],51.6 µM (inactive)
Cc1nc(N)sc1N=Nc1ccc(Br)cc1,EC50,[4],< 0.1 µM (active)
same,AC50,[5],0.753 µM (active)
same,EC50,[6],0.28 µM (active)
same,EC50,H4,> 120 µM (not active)
same,EC50,[7],> 67.5 µM (inactive)
same,EC50,[8],0.303 µM (active)
same,EC50,[9],0.285 µM (active)
Cc1cc(NC(=O)c2c(F)cccc2Cl)n(-c2nc3ccccc3[nH]2)n1,IC50,[10],> 69.5 µM (inactive)
same,EC50,[11],6.4 µM (active)
same,IC50,Estrogen receptor beta,> 50 µM (not active)
same,EC50,[12],> 160 µM (inconclusive)
same,IC50,[13],> 7.72 µM (active)
same,EC50,Streptococcus,7.12 µM (active)
same,EC50,[14],> 38 µM (not active)
CNc1ccc(-c2cccc(CO)c2)cn1,EC50,Kallikrein-7,> 7.72 µM (active)
CCCC(=O)C1CCN(c2ncnc3c2CN(C(=O)c2ccc(-c4ccccc4)cc2)CC3)CC1,IC50,[15],0.14 µM (active)
same,IC50,[16],0.021 µM (active)
same,IC50,[17],7.68 µM (active)
COC(=O)C1=C(C)N(Cc2ccc(Br)cc2)C(=S)NC1c1ccc(OC)cc1 (configuration not stated),AC50,HEK293,22.2 µM (active)
same,AC50,HeLa,> 47 µM (inactive)
same,AC50,[18],22.2 µM (active)
same,AC50,Cryptococcus neoformans,> 60 µM (inactive)
same,AC50,Cryptococcus neoformans; Cryptococcus neoformans,36.4 µM (active)
CCc1cc(CNC(=O)c2ccc(OC)c(OCCN3CCCCC3)c2)on1,IC50,[19],5.91 µM (active)
Fc1cccc(CN2C[C@@H]3N[C@H](C2)[C@H]3c2ccc(/C=C/c3ccccc3)cc2)c1,AC50,[20],13.2 µM (active)
same,AC50,[21],18.8 µM (active)
same,AC50,[22],13.7 µM (active)
O=C(Nc1nnc(-c2ccc3c(c2)OCCO3)o1)C1CCCCCC1,AC50,[23],> 200 µM (inactive)
CCN(C)C(=O)C1(CCOc2ccccc2)CCN(Cc2ccc(O)c(Cl)c2)CC1,AC50,[24],3 µM (active)
same,AC50,[25],> 52 µM (inactive)
O=c1nc(Nc2cccc(OCc3ccccc3)c2)sc2ncccc12,IC50,[26],1.64 µM (active)
CN(CCc1ccc(O)c(O)c1)c1ccnc2ccccc12,IC50,[27],4.8 µM (active)
